# In US9796711B2, “Substituted pyrazolo[3,4-b]pyridin-6-carboxylic acids and method of use” (AbbVie S.àr.l., priority 2015, dated 2017):
# What was measured:
# ΔF508-CFTR [1] = molecular target: T1, ΔF508-CFTR (Homo sapiens, UniProt P13569, DEL508-508); test: CFTR cell surface levels using HRP-tagged ΔF508-CFTR expressing CFBE cells, intrinsic corrector capacity; type: cell-based; conditions: for EC50: read-out: EC50
# T1 construct: host or cells: CFBE41o-, doxycycline-inducible
# Summary of the method: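 Here the cells express ΔF508-CFTR with horseradish peroxidase inserted in extracellular loop 4, so only rescued channel at the surface gives luminescent signal. Compounds act on their own, 20 h at the reduced temperature of 33 °C; values are percent activity relative to DMSO and a 3 μM corrector.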
# ΔF508-CFTR [2] = molecular target: T1, ΔF508-CFTR; test: CFTR cell surface levels using HRP-tagged ΔF508-CFTR expressing CFBE cells, in the presence of a co-corrector; type: cell-based; conditions: HRP-tagged ΔF508-CFTR expressing CFBE cells, in the presence of 3 μM co-corrector; for EC50: read-out: EC50
# Summary of the method: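 Cells were seeded with 0.5 μg/mL doxycycline and held 68 h at 37 °C. Test compounds plus 3 μM co-corrector (final 0.1% DMSO) were then added for 20 h at 33 °C. Washed cells received HRP substrate, and luminescence was normalized between DMSO and 3 μM co-corrector controls.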
# [3] = HRP-tagged ΔF508-CFTR expressing CFBE cells, intrinsic corrector capacity (no co-corrector), 33° C., 20 hours
# [4] = HRP-tagged ΔF508-CFTR CFBE41o- cells, compounds alone (intrinsic corrector capacity), 20 hours at 33° C., positive control 3 μM corrector
# [5] = HRP-tagged ΔF508-CFTR CFBE41o- cells, compounds alone (intrinsic corrector capacity), 20 hours at 33° C.
# T1 sequence (P13569 with tags, fused parts or gaps DEL508-508): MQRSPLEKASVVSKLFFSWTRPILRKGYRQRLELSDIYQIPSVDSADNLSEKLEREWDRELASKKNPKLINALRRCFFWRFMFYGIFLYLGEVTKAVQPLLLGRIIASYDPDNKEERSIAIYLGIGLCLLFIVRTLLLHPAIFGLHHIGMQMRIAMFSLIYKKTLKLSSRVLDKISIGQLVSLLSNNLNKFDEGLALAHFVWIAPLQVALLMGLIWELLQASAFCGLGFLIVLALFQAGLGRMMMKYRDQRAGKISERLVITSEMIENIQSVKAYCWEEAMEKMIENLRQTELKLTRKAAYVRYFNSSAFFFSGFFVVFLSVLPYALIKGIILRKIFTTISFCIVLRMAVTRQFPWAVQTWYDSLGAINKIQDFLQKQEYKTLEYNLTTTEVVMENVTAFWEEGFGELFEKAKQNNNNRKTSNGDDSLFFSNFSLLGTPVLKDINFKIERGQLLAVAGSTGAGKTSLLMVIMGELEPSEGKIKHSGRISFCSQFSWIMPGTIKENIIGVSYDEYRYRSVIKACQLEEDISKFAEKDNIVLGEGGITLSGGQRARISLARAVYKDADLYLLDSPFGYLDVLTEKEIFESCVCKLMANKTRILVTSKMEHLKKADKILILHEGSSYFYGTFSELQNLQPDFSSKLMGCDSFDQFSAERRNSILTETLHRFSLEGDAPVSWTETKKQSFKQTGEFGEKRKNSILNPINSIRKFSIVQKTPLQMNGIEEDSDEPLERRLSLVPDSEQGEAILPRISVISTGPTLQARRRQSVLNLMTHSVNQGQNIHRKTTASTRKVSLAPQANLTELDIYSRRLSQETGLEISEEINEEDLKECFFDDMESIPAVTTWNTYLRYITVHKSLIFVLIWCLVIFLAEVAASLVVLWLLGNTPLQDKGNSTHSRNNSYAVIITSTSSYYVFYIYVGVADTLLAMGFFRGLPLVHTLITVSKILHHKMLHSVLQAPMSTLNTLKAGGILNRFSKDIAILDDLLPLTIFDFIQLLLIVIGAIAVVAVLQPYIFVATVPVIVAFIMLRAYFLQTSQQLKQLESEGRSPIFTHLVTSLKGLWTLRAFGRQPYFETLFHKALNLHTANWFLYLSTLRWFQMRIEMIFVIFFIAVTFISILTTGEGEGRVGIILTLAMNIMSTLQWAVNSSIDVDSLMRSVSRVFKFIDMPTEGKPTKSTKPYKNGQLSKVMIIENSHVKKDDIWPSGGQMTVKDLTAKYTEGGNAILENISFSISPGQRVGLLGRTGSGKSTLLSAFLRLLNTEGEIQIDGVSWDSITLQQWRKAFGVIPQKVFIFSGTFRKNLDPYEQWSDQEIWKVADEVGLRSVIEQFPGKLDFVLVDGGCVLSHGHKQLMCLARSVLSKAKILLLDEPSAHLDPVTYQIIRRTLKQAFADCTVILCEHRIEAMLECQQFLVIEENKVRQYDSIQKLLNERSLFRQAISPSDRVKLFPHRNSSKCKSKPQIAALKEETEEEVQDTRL
Structure (SMILES),% Activation (ΔF508-CFTR [1]; [3]) [%],EC50 (ΔF508-CFTR [1]; [3]) [µM],% Activation (ΔF508-CFTR [2]) [%],EC50 (ΔF508-CFTR [2]) [µM],% Activation (ΔF508-CFTR [1]; [4]) [%],EC50 (ΔF508-CFTR [1]; [5]) [µM]
"O=C(O)c1cc(OCCCN2CCOCC2)c2c(C3CCC3)nn(-c3ccccc3)c2n1 [compound 487, 3-cyclobutyl-4-[3-(morpholin-4-yl)propoxy]-1-phenyl-1H-pyrazolo[3,4-b]pyridine-6-carboxylic acid]",142.7,0.835,316.5,0.491,,
"COCCN(C)c1ccc(-c2cc(C(=O)O)nc3c2c(C(C)C)nn3-c2cccc(N3CCOCC3)c2)cc1 [compound 188, 4-{4-[(2-methoxyethyl)(methyl)amino]phenyl}-1[3-(morpholin-4-yl)phenyl]-3-(propan-2-yl)-1H-pyrazolo[3,4-b]pyridine-6-carboxylic acid]",,,432.9,0.499,282.4,0.636
"O=C(O)c1cc(-c2ccc(N3CCOCC3)cc2)c2c(C3CCC3)nn(-c3ccc(C(F)(F)F)cc3)c2n1 [compound 356, 3-cyclobutyl-4-[4-(morpholin-4-yl)phenyl]-1-[4-(trifluoromethyl)phenyl]-1H-pyrazolo[3,4-b]pyridine-6-carboxylic acid]",,,331.9,0.428,152.8,0.489
"CC(C)c1nn(-c2cccc(N3CCC(F)C3)c2)c2nc(C(=O)O)cc(-c3ccc(N4CCOCC4)cc3)c12 (centres unmarked) [compound 165, 1-[3-(3-fluoropyrrolidin-1-yl)phenyl]-4-[4-(morpholin-4-yl)phenyl]-3-(propan-2-yl)-1H-pyrazolo[3,4-b]pyridine-6-carboxylic acid]",,,533.35,0.515,350.4,0.794
"CO[C@@H]1CCN(c2cc(C(=O)O)nc3c2c(C)nn3-c2ccccc2)C1 [compound 295, 4-[(3R)-3-methoxypyrrolidin-1-yl]-3-methyl-1-phenyl-1H-pyrazolo[3,4-b]pyridine-6-carboxylic acid]",,,172.1,2.51,46.475,2.51
"CC(C)c1nn(C2CCCOC2)c2nc(C(=O)O)cc(-c3ccc(N4CCOCC4)cc3)c12 (centres unmarked) [compound 68, 4-[4-(morpholin-4-yl)phenyl]-1-(oxan-3-yl)-3-(propan-2-yl)-1H-pyrazolo[3,4-b]pyridine-6-carboxylic acid]",,,274.9,1.39,106.65,1.74
"N#CC1CCN(c2cc(C(=O)O)nc3c2c(C2CCC2)nn3-c2ccccc2)CC1 [compound 410, 4-(4-cyanopiperidin-1-yl)-3-cyclobutyl-1-phenyl-1H-pyrazolo[3,4-b]pyridine-6-carboxylic acid]",155.63,0.557,317.5,0.228,,
"CC(C)c1nn(-c2cc(Cl)ccn2)c2nc(C(=O)O)cc(-c3ccc(N4CCOCC4)cc3)c12 [compound 229, 1-(4-chloropyridin-2-yl)-4-[4-(morpholin-4-yl)phenyl]-3-(propan-2-yl)-1H-pyrazolo[3,4-b]pyridine-6-carboxylic acid]",,,298,1.56,130.65,2.15
"Cc1nn(-c2ccccc2)c2nc(C(=O)O)cc(-c3ccc(N4CCC5(CC4)COC5)cc3)c12 [compound 154, 3-methyl-4-[4-(2-oxa-7-azaspiro[3.5]nonan-7-yl)phenyl]-1-phenyl-1H-pyrazolo[3,4-b]pyridine-6-carboxylic acid]",,,353.7,0.748,153.9,0.918
"O=C(O)c1cc(OCCN2CCCC2)c2c(C3CCC3)nn(-c3ccccc3)c2n1 [compound 628, 3-cyclobutyl-1-phenyl-4-[2-(pyrrolidin-1-yl)ethoxy]-1H-pyrazolo[3,4-b]pyridine-6-carboxylic acid]",67.69,3.18,217.7,3.33,,
"COCC1(F)CCN(c2cc(C(=O)O)nc3c2c(C2CCC2)nn3-c2ccccc2)C1 (centres unmarked) [compound 508, 3-cyclobutyl-4-[3-fluoro-3-(methoxymethyl)pyrrolidin-1-yl]-1-phenyl-1H-pyrazolo[3,4-b]pyridine-6-carboxylic acid]",104.6,1.11,271.8,0.451,,
"CC(C)N1CCN(c2ccc(-c3cc(C(=O)O)nc4c3c(C3CCC3)nn4C3CCCCC3)cn2)CC1 [compound 865, 3-cyclobutyl-1-cyclohexyl-4-{6-[4-(propan-2-yl)piperazin-1-yl]pyridin-3-yl}-1H-pyrazolo[3,4-b]pyridine-6-carboxylic acid]",146.9,0.439,306.8,1.12,,
"CC(C)c1nn(C2CCCCC2)c2nc(C(=O)O)cc(-c3cnc(N4CCOCC4)nc3)c12 [compound 80, 1-cyclohexyl-4-[2-(morpholin-4-yl)pyrimidin-5-yl]-3-(propan-2-yl)-1H-pyrazolo[3,4-b]pyridine-6-carboxylic acid]",,,341.92,2.93,184.8,0.611
"CC(C)c1nn(C2CCCC2)c2nc(C(=O)O)cc(-c3ccc(N4CCOCC4)cc3)c12 [compound 69, 1-cyclopentyl-4-[4-(morpholin-4-yl)phenyl]-3-(propan-2-yl)-1H-pyrazolo[3,4-b]pyridine-6-carboxylic acid]",,,366.8,0.993,150.25,0.97
"CC(C)c1nn(-c2ccc(F)cc2)c2nc(C(=O)O)cc(N3CCN(CCOCCO)CC3)c12 [compound 778, 1-(4-fluorophenyl)-4-{4-[2-(2-hydroxyethoxy)ethyl]piperazin-1-yl}-3-(propan-2-yl)-1H-pyrazolo[3,4-b]pyridine-6-carboxylic acid]",9.442,5,149,1.67,,
"CCCCOC1CCN(c2cc(C(=O)O)nc3c2c(C(C)C)nn3-c2ccc(F)cc2)CC1 [compound 395, 4-(4-butoxypiperidin-1-yl)-1-(4-fluorophenyl)-3-(propan-2-yl)-1H-pyrazolo[3,4-b]pyridine-6-carboxylic acid]",223.6,0.438,480.35,0.549,,
"CC(C)c1nn(-c2ccnc(Cl)c2)c2nc(C(=O)O)cc(-c3ccc(N4CCOCC4)cc3)c12 [compound 41, 1-(2-chloropyridin-4-yl)-4-[4-(morpholin-4-yl)phenyl]-3-(propan-2-yl)-1H-pyrazolo[3,4-b]pyridine-6-carboxylic acid]",,,301.2,0.527,110.52,0.957
"CC(C)N(CCOc1cc(C(=O)O)nc2c1c(C1CCC1)nn2-c1ccccc1)C1COC1 [compound 478, 3-cyclobutyl-4-{2-[(oxetan-3-yl)(propan-2-yl)amino]ethoxy}-1-phenyl-1H-pyrazolo[3,4-b]pyridine-6-carboxylic acid]",125.2,0.828,292,0.409,,
"CC(C)c1nn([C@@H]2CCC[C@@H](O)C2)c2nc(C(=O)O)cc(-c3ccc(N4CCOCC4)cc3)c12 (racemic) [compound 194, rac-1-[(1R,3R)-3-hydroxycyclohexyl]-4-[4-(morpholin-4-yl)phenyl]-3-(propan-2-yl)-1H-pyrazolo[3,4-b]pyridine-6-carboxylic acid]",,,233.9,1.25,86.36,1.71
"N#CC1CCN(c2ccc(-c3cc(C(=O)O)nc4c3c([C@H]3C[C@@H](F)C3)nn4-c3ccccc3)cn2)CC1 [compound 432, 4-[6-(4-cyanopiperidin-1-yl)pyridin-3-yl]-3-(cis-3-fluorocyclobutyl)-1-phenyl-1H-pyrazolo[3,4-b]pyridine-6-carboxylic acid]",197.97,0.561,388.23,0.298,,
"Cc1cccc(-n2nc(C)c3c(-c4ccc(N5CCOCC5)cc4)cc(C(=O)O)nc32)c1 [compound 13, 3-methyl-1-(3-methylphenyl)-4-[4-(morpholin-4-yl)phenyl]-1H-pyrazolo[3,4-b]pyridine-6-carboxylic acid]",,,363.7,0.723,159.23,0.997
"CC(C)c1nn(-c2ccc(F)cc2)c2nc(C(=O)O)cc(OCCC3CCOCC3)c12 [compound 604, 1-(4-fluorophenyl)-4-[2-(oxan-4-yl)ethoxy]-3-(propan-2-yl)-1H-pyrazolo[3,4-b]pyridine-6-carboxylic acid]",142.9,0.739,292.2,0.256,,
"O=C(O)c1cc(N2CCCCC2)c2c(C3CCC3)nn(-c3ccccc3)c2n1 [compound 408, 3-cyclobutyl-1-phenyl-4-(piperidin-1-yl)-1H-pyrazolo[3,4-b]pyridine-6-carboxylic acid]",141.15,0.932,346.95,0.617,,
